Laboratory results as given in US20240327334A1, “Covalent Inhibitors As Antiviral Agents” (Enanta Pharmaceuticals, Inc., priority 2022, published 2024).

What was measured:
[1] = target: SARS-CoV-2 Papain-like (PLpro) protease (Severe acute respiratory syndrome coronavirus 2, UniProt P0DTD1); assay: SARS-CoV-2 Papain-like (PLpro) protease biochemical enzyme inhibition assay (ubiquitin-fluorophore substrate, Ub-R110); conditions: Ub-R110 substrate; run in duplicate; read-out: PLpro IC50
SARS-CoV-2 replicon = assay: microbe, parasite or virus in culture; assay type: cell-based; conditions: Severe acute respiratory syndrome coronavirus 2, Huh-7

Structure (SMILES) | IC50 [1] | EC50 (SARS-CoV-2 replicon)
C#CCNC(=O)C(=O)NCc1ccccc1C(=O)NC1(c2cc(-c3cccs3)cc(Cl)c2F)CC1 [Example 303] | < 100 nM | < 1000 nM
Cn1cc2cc(C3(NC(=O)c4ccccc4CNC(=O)C(=O)NCC#N)CC3)ccc2n1 [Example 341] | 100 to 1000 nM | > 10000 nM
COCCN(C)C(=O)/C=C/CNC(=O)C(=O)NCc1ccccc1C(=O)NC1(c2cccc3ccccc23)CC1 [Example 556] | 100 to 1000 nM | 1000 to 10000 nM
C[C@@H](C#Cc1nccs1)NC(=O)C(=O)NCc1ccccc1C(=O)NC1(c2cc(Cl)cc(-c3ncco3)c2)CC1 [Example 493] | < 100 nM | < 1000 nM
N#Cc1ccc(C#CCNC(=O)C(=O)NCc2ccccc2C(=O)NC2(c3ccc4ccccc4c3)CC2)cc1 [Example 171] | < 100 nM | < 1000 nM
C[C@@H](C#Cc1ccc(C#N)cc1OC(F)(F)F)NC(=O)C(=O)NCc1ccccc1C(=O)NC1(c2ccc3nn(C)cc3c2)CC1 [Example 206] | < 100 nM | < 1000 nM
N#CCNC(=O)C(=O)NCc1ccccc1C(=O)NC1(c2ccc3c4c(cccc24)C(=O)N3)CC1 [Example 434] | < 100 nM | 1000 to 10000 nM
C[C@@H](C#Cc1ncccc1Cl)NC(=O)C(=O)NCc1ccccc1C(=O)NC1(c2cc(F)cc(-c3cnn(C4CC4)c3)c2)CC1 [Example 264] | < 100 nM | < 1000 nM
C#CCNC(=O)C(=O)NCc1ccccc1C(=O)NC1(c2cc(Cl)cc(-c3c(C)nn(C4CC4)c3C)c2)CC1 [Example 131] | < 100 nM | < 1000 nM
COc1cc(C2(NC(=O)c3ccccc3CNC(=O)C(=O)NCC#Cc3ccc(C#N)cc3OC(F)(F)F)CC2)cc2cn(C3CC3)nc12 [Example 215] | < 100 nM | < 1000 nM
CC(C)c1cccnc1C#CCNC(=O)C(=O)NCc1ccccc1C(=O)NC1(c2ccc3ccccc3c2)CC1 [Example 404] | < 100 nM | < 1000 nM
COC(=O)/C=C/CNC(=O)C(=O)NCc1ccccc1C(=O)N[C@H](C)c1cc(-c2ccoc2)cc(C(F)(F)F)c1 [Example 465] | < 100 nM | < 1000 nM
O=C(NCC#Cc1cncnc1)C(=O)NCc1ccccc1C(=O)NC1(c2ccc3ccccc3c2)CC1 [Example 166] | < 100 nM | < 1000 nM
O=C(NCC#Cc1nccs1)C(=O)NCc1ccccc1C(=O)NC1(c2ccnc3ccccc23)CC1 [Example 392] | < 100 nM | 1000 to 10000 nM
N#CCNC(=O)C(=O)NCc1ccccc1C(=O)NC1(c2cc(F)cc(-c3cnn(C4CC4)c3)c2)CC1 [Example 222] | < 100 nM | > 10000 nM
N#CCNC(=O)C(=O)NCc1cnccc1C(=O)NC1(c2cccc3ccccc23)CC1 [Example 366] | < 100 nM | 1000 to 10000 nM
Cc1nn(C)cc1-c1cc(Cl)cc(C2(NC(=O)c3ccccc3CNC(=O)C(=O)NCC#Cc3nccs3)CC2)c1 [Example 486] | < 100 nM | < 1000 nM
C[C@@H](C#Cc1nccs1)NC(=O)C(=O)NCc1ccccc1C(=O)N[C@H](C)c1cc(F)cc(-c2cnn(C3CC3)c2)c1 [Example 495] | < 100 nM | < 1000 nM
O=C(NCC#Cc1nccs1)C(=O)NCc1ccccc1C(=O)NC1(c2ccc3c4c(cccc24)CC3)CC1 [Example 440] | < 100 nM | < 1000 nM
N#CCNC(=O)C(=O)NCc1ccccc1C(=O)NC1(c2cc(C#N)cc3ccccc23)CC1 [Example 294] | < 100 nM | < 1000 nM
O=C(NCC#Cc1nccs1)C(=O)NCc1ccccc1C(=O)NC1(c2ccn3nccc3c2)CC1 [Example 399] | < 100 nM | < 1000 nM
C[C@@H](NC(=O)c1ccccc1CNC(=O)C(=O)NCC#N)c1cccc2ccccc12 [Example 6] | < 100 nM | 1000 to 10000 nM
O=C(NCC#Cc1ncc(F)cn1)C(=O)NCc1ccccc1C(=O)NC1(c2ccc3ccccc3c2)CC1 [Example 176] | < 100 nM | < 1000 nM
N#CCNC(=O)C(=O)NCc1ccccc1C(=O)NC1(c2cc(C(F)(F)F)nc3ccccc23)CC1 [Example 90] | < 100 nM | 1000 to 10000 nM
O=C(NC/C=C/C(=O)n1cccn1)C(=O)NCc1ccccc1C(=O)NC1(c2cccc3ccccc23)CC1 [Example 567] | 100 to 1000 nM | 1000 to 10000 nM
O=C(NCC#Cc1ccc(F)cn1)C(=O)NCc1ccccc1C(=O)NC1(c2cc(-c3cnn(C4CC4)c3)cc(C3CC3)c2)CC1 [Example 135] | < 100 nM | < 1000 nM
N#CCNC(=O)C(=O)NCc1ccccc1C(=O)NC1(c2cc(F)c(F)c(-c3cccs3)c2)CC1 [Example 239] | < 100 nM | > 10000 nM
N#CCNC(=O)C(=O)NCc1ccccc1C(=O)NC1(c2cccc3cc(F)ccc23)CC1 [Example 54] | < 100 nM | < 1000 nM
Cc1cc(C#N)ccc1C#CCNC(=O)C(=O)NCc1ccccc1C(=O)NC1(c2ccc3ccccc3c2)CC1 [Example 85] | < 100 nM | < 1000 nM
O=C(NC/C=C/C(=O)N1CC[C@@H](O)C1)C(=O)NCc1ccccc1C(=O)NC1(c2cccc3ccccc23)CC1 [Example 563] | < 100 nM | > 10000 nM
